The test system of one assay is H9c2. As to the kind of experiment: cells. The settings on record: Rattus norvegicus, H9c2, Myocardium. In kind it is functional, cell-based.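 Also: confirmatory concentration-response retest of ultra-high-throughput screening hits for modulation of myocardial damage; cell death induced by hydrogen peroxide oxidative stress; compound pretreatment for 60 min then peroxide exposure for 2 h; potency is for protecting the cells against peroxide damage rather than for killing them.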
Another assay has as its target Nonstructural protein 1 (Influenza A virus, UniProt Q194T2). It counts as functional, Influenza A virus (A/California/07/2009(H1N1)).
Assay [1] can be described thus: Luminescence Cell-Based Dose Response HTS to Identify Activators of Luciferase Translation or Activity in H4 […] Cells. [Related pubchem assays: 1829 (Project Summary), 1814 (Primary HTS)]. In kind it is functional.
Assay [2] in a line: Luminescence Cell-Based Dose Confirmation HTS to Identify Activators of 5'UTR Stem-Loop Driven Alpha-Synuclein mRNA Translation in H4 Neuroglioblastoma Cells. [Related pubchem assays: 1829 (Project Summary), 1814 (Primary HTS)]. In kind it is functional.
The test system of a further assay is H4. The experiment in a line: Luminescence Cell-Based Dose Response HTS to Identify Activators of 5'UTR Stem-Loop Driven Prion Protein mRNA Translation in H4 Neuroglioblastoma Cells. [Related pubchem assays: 1829 (Project Summary), 1814 (Primary HTS)]. In kind it is functional. The settings on record: Homo sapiens.
Assay [3] in a line: cells. In kind it is functional, cell-based.
The nature of assay [4]: cells. In kind it is functional, cell-based. This is another data set of the same source.
Assay [5] has as its target T1, Replicative DNA helicase DnaB (Mycobacterium tuberculosis, UniProt P9WMR3).
T1 sequence (P9WMR3 whole entry): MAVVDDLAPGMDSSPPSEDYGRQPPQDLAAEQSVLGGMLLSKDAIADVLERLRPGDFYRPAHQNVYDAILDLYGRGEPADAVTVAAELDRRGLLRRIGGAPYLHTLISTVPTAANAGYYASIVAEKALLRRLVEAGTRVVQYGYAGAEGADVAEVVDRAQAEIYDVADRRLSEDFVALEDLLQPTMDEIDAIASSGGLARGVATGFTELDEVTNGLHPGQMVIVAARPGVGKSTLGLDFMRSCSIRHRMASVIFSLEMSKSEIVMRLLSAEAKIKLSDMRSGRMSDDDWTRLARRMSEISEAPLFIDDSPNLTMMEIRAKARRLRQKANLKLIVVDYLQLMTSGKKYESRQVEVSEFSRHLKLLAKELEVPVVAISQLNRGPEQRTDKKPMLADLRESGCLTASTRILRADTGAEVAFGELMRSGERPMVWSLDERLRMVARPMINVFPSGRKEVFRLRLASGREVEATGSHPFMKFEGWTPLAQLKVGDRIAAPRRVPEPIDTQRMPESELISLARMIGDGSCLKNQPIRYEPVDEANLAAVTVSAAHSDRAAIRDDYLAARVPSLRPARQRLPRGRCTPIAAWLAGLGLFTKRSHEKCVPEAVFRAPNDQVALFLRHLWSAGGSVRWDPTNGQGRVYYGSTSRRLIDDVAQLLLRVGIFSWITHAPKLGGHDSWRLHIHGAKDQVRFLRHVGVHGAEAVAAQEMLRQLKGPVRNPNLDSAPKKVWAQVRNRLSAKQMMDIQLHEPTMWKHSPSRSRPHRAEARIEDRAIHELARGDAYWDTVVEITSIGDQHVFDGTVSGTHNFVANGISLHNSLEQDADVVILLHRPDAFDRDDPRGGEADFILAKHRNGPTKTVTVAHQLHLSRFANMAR
As to the kind of experiment: DnaB intein splicing inhibitors, dose response, biochemical, cell-free fluorescence (AID 449749). In kind it is functional.

A further assay deals with T2, Protein RecA (Mycobacterium tuberculosis, UniProt P9WHJ3).
T2 sequence (P9WHJ3 whole entry): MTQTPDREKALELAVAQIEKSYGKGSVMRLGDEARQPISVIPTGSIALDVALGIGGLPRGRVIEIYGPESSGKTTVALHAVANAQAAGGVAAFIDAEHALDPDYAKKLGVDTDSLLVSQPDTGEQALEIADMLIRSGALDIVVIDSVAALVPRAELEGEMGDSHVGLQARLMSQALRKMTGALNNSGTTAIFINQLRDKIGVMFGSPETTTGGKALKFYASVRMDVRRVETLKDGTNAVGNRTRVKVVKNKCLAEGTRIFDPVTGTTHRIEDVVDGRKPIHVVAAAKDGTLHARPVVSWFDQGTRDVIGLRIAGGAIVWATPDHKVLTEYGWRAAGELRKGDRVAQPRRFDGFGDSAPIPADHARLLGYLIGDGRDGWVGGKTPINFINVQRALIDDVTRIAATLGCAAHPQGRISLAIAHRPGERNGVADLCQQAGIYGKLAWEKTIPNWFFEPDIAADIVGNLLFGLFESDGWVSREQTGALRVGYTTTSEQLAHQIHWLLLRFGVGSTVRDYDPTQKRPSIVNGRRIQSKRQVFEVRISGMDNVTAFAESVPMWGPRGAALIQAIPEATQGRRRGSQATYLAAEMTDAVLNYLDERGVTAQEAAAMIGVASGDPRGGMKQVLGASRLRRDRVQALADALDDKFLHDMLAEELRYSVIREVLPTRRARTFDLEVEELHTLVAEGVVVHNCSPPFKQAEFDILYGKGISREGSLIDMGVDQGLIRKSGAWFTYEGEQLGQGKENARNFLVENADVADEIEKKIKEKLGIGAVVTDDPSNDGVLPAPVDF
The experiment in a line: Fluorescence Cell-Free Homogeneous Dose Retest to Identify Inhibitors of RecA-Intein Splicing Activity. [Related pubchem assays (depositor defined):AID2097, AID2223, AID489010, AID492950]. In kind it is functional.

Assay [6] concerns the target T3, DNA repair protein RAD52 homolog (Homo sapiens, UniProt P43351).
T3 sequence (P43351 whole entry): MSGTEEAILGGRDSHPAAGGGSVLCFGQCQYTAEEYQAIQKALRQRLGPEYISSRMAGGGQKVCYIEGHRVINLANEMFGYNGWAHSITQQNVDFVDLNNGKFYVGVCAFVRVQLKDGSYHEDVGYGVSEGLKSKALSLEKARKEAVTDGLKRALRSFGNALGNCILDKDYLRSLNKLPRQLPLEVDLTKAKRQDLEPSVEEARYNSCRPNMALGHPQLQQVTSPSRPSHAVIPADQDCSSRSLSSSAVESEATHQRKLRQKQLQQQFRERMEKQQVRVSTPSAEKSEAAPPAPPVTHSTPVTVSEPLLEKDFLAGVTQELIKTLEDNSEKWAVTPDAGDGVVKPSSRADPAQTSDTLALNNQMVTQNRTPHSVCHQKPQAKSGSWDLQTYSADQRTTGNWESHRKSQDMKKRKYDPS
In kind it is functional, biochemical.

The next assay has as its target Genome polyprotein (dengue virus type 2, UniProt P29990). As to the kind of experiment: flavivirus cap methylation enzyme inhibition – biochemical, confirmation dose response, primary screen (AID 588689). It counts as functional.
In a further assay the target is Large T antigen (Simian virus 40, UniProt P03070). In kind it is functional, Betapolyomavirus macacae.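 Also: Confirmatory-stage PubChem screen for compounds that inhibit SV40 T antigen.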
Sequence of Large T antigen (P03070 whole entry): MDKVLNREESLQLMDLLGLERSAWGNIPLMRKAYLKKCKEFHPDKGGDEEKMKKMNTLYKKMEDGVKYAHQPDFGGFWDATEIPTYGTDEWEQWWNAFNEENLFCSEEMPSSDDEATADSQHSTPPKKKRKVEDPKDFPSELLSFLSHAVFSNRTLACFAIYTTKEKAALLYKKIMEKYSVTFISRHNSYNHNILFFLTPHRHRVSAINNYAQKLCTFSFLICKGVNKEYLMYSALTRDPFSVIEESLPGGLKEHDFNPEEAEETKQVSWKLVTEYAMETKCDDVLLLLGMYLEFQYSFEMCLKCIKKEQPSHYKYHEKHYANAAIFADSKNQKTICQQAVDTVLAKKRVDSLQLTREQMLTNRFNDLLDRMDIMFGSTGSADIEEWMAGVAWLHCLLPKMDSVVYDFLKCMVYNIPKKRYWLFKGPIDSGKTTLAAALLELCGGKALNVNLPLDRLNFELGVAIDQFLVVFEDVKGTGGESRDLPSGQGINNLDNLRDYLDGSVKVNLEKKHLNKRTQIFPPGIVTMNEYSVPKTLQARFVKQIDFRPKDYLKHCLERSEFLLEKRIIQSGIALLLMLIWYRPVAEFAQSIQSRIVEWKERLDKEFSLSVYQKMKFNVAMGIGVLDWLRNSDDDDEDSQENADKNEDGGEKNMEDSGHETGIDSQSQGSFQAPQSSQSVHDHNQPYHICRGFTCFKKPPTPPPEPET
The nature of assay [7]: reduction of Shn3 3'UTR-driven luciferase in osteoblasts – cell-based, Clone20 osteoblasts, firefly luciferase, cherry-picked, dose response (AID 624132).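 Also: firefly luciferase luminescence from reporter carrying the Shn3 3'UTR in osteoblasts.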 In kind it is functional.
Assay [8] is described as follows: non-specific 3'UTR reporter inhibition in Clone20-Shn3RL – cell-based, Renilla luciferase, cherry-picked, counter-screen for Shn3 inhibitor project, dose response (AID 624133). In kind it is functional.
The nature of assay [9]: loss of viability in HepG2 cells – cell-based, CellTiter-Glo, cherry-picked, cytotoxicity control for Shn3 inhibitor project, dose response (AID 624134). It counts as functional. In general terms: ATP-based viability assays read luminescence as a measure of living cells.
The target of assay [10] is Heat shock protein HSP 90-alpha (Homo sapiens, UniProt P07900). In kind it is functional, organism-based.

Calls of active or inactive are those of the source. Some results are limits rather than exact numbers.

Sequence of Nonstructural protein 1 (Q194T2 whole entry): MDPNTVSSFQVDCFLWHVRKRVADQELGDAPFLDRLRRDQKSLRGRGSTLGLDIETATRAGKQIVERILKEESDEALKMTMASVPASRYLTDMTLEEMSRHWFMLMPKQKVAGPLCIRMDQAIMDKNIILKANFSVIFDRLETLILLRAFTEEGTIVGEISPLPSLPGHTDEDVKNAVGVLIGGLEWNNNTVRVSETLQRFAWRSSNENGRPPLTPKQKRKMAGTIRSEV
Sequence of Genome polyprotein (P29990 2492-3391 limits assumed): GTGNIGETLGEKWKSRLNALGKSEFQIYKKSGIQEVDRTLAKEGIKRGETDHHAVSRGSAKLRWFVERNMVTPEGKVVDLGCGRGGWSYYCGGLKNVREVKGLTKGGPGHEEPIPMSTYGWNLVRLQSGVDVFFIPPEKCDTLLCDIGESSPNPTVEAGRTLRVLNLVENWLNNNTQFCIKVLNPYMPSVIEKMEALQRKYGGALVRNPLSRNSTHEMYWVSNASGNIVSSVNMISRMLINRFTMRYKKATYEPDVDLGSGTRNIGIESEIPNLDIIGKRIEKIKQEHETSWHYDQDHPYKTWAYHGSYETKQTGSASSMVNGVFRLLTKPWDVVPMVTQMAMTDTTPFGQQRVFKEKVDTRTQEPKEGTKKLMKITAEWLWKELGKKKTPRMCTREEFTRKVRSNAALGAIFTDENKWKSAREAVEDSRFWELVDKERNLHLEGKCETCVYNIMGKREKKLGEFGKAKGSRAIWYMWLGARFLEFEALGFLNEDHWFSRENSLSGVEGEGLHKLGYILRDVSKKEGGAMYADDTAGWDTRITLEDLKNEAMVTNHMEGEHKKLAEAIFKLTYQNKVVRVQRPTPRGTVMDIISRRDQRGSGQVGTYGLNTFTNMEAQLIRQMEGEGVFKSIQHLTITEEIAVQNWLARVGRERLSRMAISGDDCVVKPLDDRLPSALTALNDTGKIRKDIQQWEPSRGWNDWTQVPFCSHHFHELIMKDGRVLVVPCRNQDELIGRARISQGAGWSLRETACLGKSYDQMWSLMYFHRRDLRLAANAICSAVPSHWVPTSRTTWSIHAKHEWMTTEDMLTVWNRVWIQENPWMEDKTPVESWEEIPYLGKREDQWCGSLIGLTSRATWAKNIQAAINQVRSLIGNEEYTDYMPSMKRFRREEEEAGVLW

Take `CCOC(=O)C1=c2s/c(=C\c3ccncc3)c(=O)n2C(N)=C(C(=O)OC)C1c1ccncc1` (stereo not drawn): the IC50 (usually the point on the concentration scale where inhibition reaches its midpoint) with H9c2 was > 79 µM (inactive).

Take `O=C1NC(=S)N(C2CC2)C(=O)/C1=C/NNC(=O)c1ccccc1`: at Nonstructural protein 1, the IC50 was 12.7 µM (active).

For the compound `COc1ccc2occ(C(=O)c3cccs3)c2c1`, the figures for the 50% effective concentration (EC50) (in assay [1]; in [2]; in the assay with H4) were 13.3 µM (active), 6.67 µM (active) and 32.6 µM (active), respectively.

As for `CC(OC(=O)Cc1nnc(O)c2ccccc12)C(=O)Nc1cccc([N+](=O)[O-])c1` (stereo not drawn), in the assay on H9c2, the IC50 is > 79 µM (inactive).

As for `N#CCC(=O)N/N=C/c1ccc(SCC(=O)Nc2ccccc2)o1`, the half-maximal effective concentration (EC50) in “cells [3]” and in the assay “cells [4]” was > 350 µM (not active) in each case.

As to `COc1ccc(CC(NC(C)=O)C(=O)NC2CCN(C(=O)c3cccc(Cl)c3)CC2)cc1OC` (stereo not drawn), the half-maximal effective concentration (EC50) in “cells [3]” and in “cells [4]” was > 350 µM (not active) in each case.

As to `O=C(CSC1=NCCS1)N1CCc2ccccc21`, the 50% effective concentration (EC50) (commonly the concentration that produces a half-maximal response) in assay [1] is 45.7 µM (active); in [2], 10.7 µM (active); with H4, 15.4 µM (active).

`COc1ccc(N(CC(=O)Nc2ccc3c(c2)OCO3)S(=O)(=O)c2ccccc2)c(OC)c1`: the IC50 with H9c2 is > 79 µM (inactive).

Regarding `COc1cc(N=Nc2cccc(S(N)(=O)=O)c2)c2ccccc2c1N`, the AC50 (commonly the midpoint of the concentration-response curve, whichever way the signal moves) in [5] is 5.37 µM (active). Further, the EC50 on Protein RecA was 11.5 µM (active). Moreover, at Nonstructural protein 1, the IC50 was 14.2 µM (active).

For `Cc1cccc(OCC(=O)Nc2ccc3c(c2)nc(CN2CCCCC2)n3C)c1`, the AC50 in [6] is 20 µM (active).

On to `Cc1csc(NC(=O)CSc2ccc(-c3ccccn3)nn2)n1`, for which, at Nonstructural protein 1, the IC50 was 10.2 µM (active).

For the compound `Cc1ccc(N2CC(=O)Nc3c(sc4nc(C)cc(C)c34)C2=O)cc1`, the EC50 in the assay “cells [3]” and in the assay “cells [4]” was > 350 µM (not active) in each case.

Regarding `COc1ccc(C2CC(c3ccccc3)=NN2c2ccc(Cl)c(C(=O)O)c2)cc1` (stereo not drawn), the concentration for half-maximal inhibition (IC50) at Genome polyprotein is 39.9 µM (active).

For the compound `CSC1=NN=C(c2ccc(C(C)(C)C)cc2)NN1`, the EC50 in assay [1] is 36.5 µM (active); in assay [2] it was 15.2 µM (active); in the assay with H4, 16.9 µM (active).

On to `COc1ccc(-c2cc(C(=O)N(C)Cc3nc(O)c4ccccc4n3)c3ccccc3n2)cc1OC`, for which, in the assay with H9c2, the IC50 was > 79 µM (inactive).

As for `COC(=O)c1ccc(CSc2nc3c(c(=O)n2-c2ccc(F)cc2)SCC3)o1`, the EC50 in the assay “cells [3]” and in “cells [4]” was > 350 µM (not active) throughout.

Take `Nc1ncc(N=Nc2cc(C(=O)O)ccc2Cl)s1`: the IC50 on Genome polyprotein is 73.6 µM (active); on Large T antigen, 67.1 µM (active).

`c1ccc2c(-c3n[nH]cc3CNCCCn3ncc4ccccc43)cccc2c1`: the AC50 in [7] was 3.25 µM (active); in assay [8], 4.62 µM (active); in [9], 56.7 µM (active).

`Cc1ccc(/N=C/c2cc(Cl)cc(Cl)c2O)nc1`: the IC50 in the assay on H9c2 is 13.5 µM (active).

On to `COC(=O)c1ccc2c(O)nc(COC(=O)c3[nH]c(C)c(C(C)=O)c3C)nc2c1`, for which the IC50 in the assay on H9c2 is 7.05 µM (active).

Regarding `CCc1nc(C)c(C(=O)N2CCCC(C(=O)Nc3cccc(-c4cccc(C)c4)c3)C2)o1` (stereo not drawn), the figures for the EC50 (in [1]; in assay [2]; in the assay with H4) were 7.7 µM (active), 8.19 µM (active) and 16.3 µM (active), respectively.

Consider `CCOc1ccc(NC(=O)CC(NCc2ccccn2)C(=O)O)cc1` (stereo not drawn), for which the IC50 on Nonstructural protein 1 is 1.28 µM (active).

As for `O=C1OC(c2ccccc2)(c2cc(Br)c(O)c(Br)c2)c2ccccc21` (stereo not drawn), the IC50 on Genome polyprotein is 35.2 µM (active). Besides, the half-maximal activity concentration (AC50) in assay [10] is 4.1 µM (active).

Turning to `Cc1ccc(Nc2cc(-n3cccn3)ncn2)c(C)c1`, the EC50 was 0.619 µM (active) in assay [1], 0.12 µM (active) in assay [2] and < 0.1 µM (active) in the assay on H4.

`CCC1CCCCN1Cc1c(O)ccc2c(=O)c(-c3ccccc3OC)coc12` (stereo not drawn): the EC50 in the assay “cells [3]” and in the assay “cells [4]” was > 350 µM (not active) in each case.

With `COc1cc(CC(=O)Nc2ccc(Cl)c(C(F)(F)F)c2)cc(OC)c1OC`, the EC50 in the assay “cells [3]” and in “cells [4]” was > 350 µM (not active) in each case.

For `CCc1nnc(NC(=O)CCC(=O)N2CCN(C3c4ccccc4-c4ccccc43)CC2)s1`, the IC50 in the assay with H9c2 is 17.4 µM (active).

Turning to `Cn1nc(C(=O)NC2CCCCC2)c2c1-c1ccccc1SC2`, the values for the EC50 (in [1]; in assay [2]; in the assay with H4) were 25.7 µM (active), 13.4 µM (active) and 12.2 µM (active), respectively.

`CCC1(c2ccc(Cl)cc2)N=C(S)N(c2ccc(C)cc2)N1` (stereo not drawn): the concentration giving a half-maximal response (EC50) was 11.2 µM (active) in assay [1], 19.1 µM (active) in assay [2] and 14.7 µM (inconclusive) with H4.

In the case of `CCc1nnc(NC(=O)c2cc(Cl)ccn2)s1`, the concentration for half-maximal inhibition (IC50) at Nonstructural protein 1 is 11.1 µM (active).

For `O=C1CCCC(=O)C1=CNc1cccc(C(F)(F)F)c1`, the EC50 in “cells [3]” and in “cells [4]” was > 350 µM (not active) in each case.
